Reference: patent US20230302159A1, “COMPOUNDS AND COMPOSITIONS FOR TUMOR DETECTION AND SURGICAL GUIDANCE” (Cornell University, priority 2020, published 2023)
Where two headings read alike, the source gives them in different places. Marks after values point to notes of the source that are not given here.

What was measured:
[1] = Solubility of the CypH dyes (Table 1); format: physicochemical
Method: (§1) Characterization: All new CypH dyes were characterized by proton NMR and mass spectrometry to confirm identity. NMR data was consistent with the structure and mass spectrometry results gave the expected mass of the dye±0.5 amu. An HPLC method was developed (see below) and used to assess dye purity. […] Retention times on the column generally correlated with lipophilicity of the dyes with water soluble dyes containing sulfate groups eluting out earlier (@10.6 min for CypH-3, 6, 9) than CypH-1 (@11.9 min) and the more lipophilic dyes later. Optical properties of the dyes, acid dissociation constants and solubilities were also determined. Synthetic intermediates were also characterized by proton NMR.

[2] = Fluorescence properties of the CypH dyes at pH 5.0 and pH 7.5 (Table 2); format: physicochemical; details: for Ratio Intensity pH 5.0/7.5: fluorescence intensity pH 5.0 over pH 7.5
Description: The excitation and emission maxima of CypH-1 are 760 and 777 nm, respectively. The signal intensity ratio of pH 5 over pH 7.5 was about 10. The meso-bridge ring size, lipophilicity and electro-density of CypH-1 was modified to provide better optical property. […] The best compound from this group was CypH-5 whose fluorescence ratio of pH 5.0/pH 7.5 was increased to 22. Based on this initial structure and property relationship, the second round of 10 new analogs were designed using CypH-5 as the core, focusing on modifying the electron density on the aniline ring and the indolinium ring. Various alkyl groups, such as methyl, ethyl, propyl, isopropyl and their combinations, were applied to these two positions.
The CypH analogs with other longer alkyl chains had much lower background fluorescence. […] Among them, CypH-11, which has a methyl isopropyl aniline and an isopropyl group on the indolinium ring, gave a 112-fold enhancement in fluorescence signal. CypH-11 has absorbance and emission maxima at 766 nm and 785 nm, respectively (FIG. 4) and was selected as the lead compound (vide infra).

[3] = Optical properties of the CypH dyes: absorbance maximum and extinction coefficient in EtOH (Table 1); format: physicochemical; details: for Ex Coeff (M^−1cm^−1) @ Abs Max: at absorbance maximum
Method: as §1

[4] = in water; cited from earlier work
[5] = organic solvent or mixture, in EtOH, read-out: Solubility

Row | Compound | Solubility [1, 5] [µM] | Ratio Intensity pH 5.0/7.5 [2] | FL Intensity pH 5.0 [2] | FL Max (nm) pH 5.0 [2] [nm] | FL Intensity pH 7.5 [2] | FL Max (nm) pH 7.5 [2] [nm] | Ex Coeff (M^−1cm^−1) @ Abs Max [3] | Abs. Max (nm) in EtOH [3] | Solubility ([1]; in EtOH) [mM in] | Solubility ([1]; in H2O) [mM in] | Ratio Intensity pH 5.0/7.5 ([2]; listed as 5) | quantum yield (Φ) of standard compound [4] [%]
1 | CCN1/C(=C/C=C2\CCCC(/C=C/C3=[N+](CC)c4ccccc4C3(C)C)=C2Oc2ccc(N(C)C(C)C)cc2)C(C)(C)c2ccccc21 [CypH-10] | > 1000 | 13.0 | 5380 | 788 | 414 | 781 | 175,400 M^−1cm^−1 | 765 nm | – | – | – | –
2 | CC(C)CN1/C(=C/C=C2\CCCC(/C=C/C3=[N+](CC(C)C)c4ccccc4C3(C)C)=C2Oc2ccc(N(C)C)cc2)C(C)(C)c2ccccc21.[I-] [CypH-19] | – | 68.2 | 3137 | 794 | 46 | 784 | 240,900 M^−1cm^−1 | 774 nm | >1 | – | – | –
3 | CCN1/C(=C/C=C2\CCCC(/C=C/C3=[N+](CC)c4ccccc4C3(C)C)=C2Oc2ccc(N(C)C)cc2)C(C)(C)c2ccccc21 [CypH-2] | > 1000 | 30.6 | 4254 | 787 | 139 | 786 | 139,100 M^−1cm^−1 | 764 nm | – | – | – | –
4 | CC(C)CN1/C(=C/C=C2\CCCC(/C=C/C3=[N+](CC(C)C)c4ccccc4C3(C)C)=C2Oc2ccc(N(C)C(C)C)cc2)C(C)(C)c2ccccc21.[I-] [CypH-13] | – | 35.0 | 4204 | 796 | 120 | 790 | 218,100 M^−1cm^−1 | 774 nm | >1 | – | – | –
5 | CCCN1/C(=C/C=C2\CCCC(/C=C/C3=[N+](CCC)c4ccccc4C3(C)C)=C2Oc2ccc(N(C)C)cc2)C(C)(C)c2ccccc21.[I-] [CypH-15] | – | 53.2 | 4313 | 791 | 81 | 786 | 251,500 M^−1cm^−1 | 772 nm | >1 | – | – | –
6 | CCN(C)c1ccc(OC2=C(/C=C/C3=[N+](C(C)C)c4ccccc4C3(C)C)CCC/C2=C\C=C2\N(C(C)C)c3ccccc3C2(C)C)cc1 [CypH-17] | > 1000 | 57.3 | 4468 | 791 | 78 | 782 | 269,100 M^−1cm^−1 | 770 nm | – | – | – | –
7 | CC(C)N(C)c1ccc(OC2=C(/C=C/C3=[N+](CCCS(=O)(=O)[O-])c4ccccc4C3(C)C)CCC/C2=C\C=C2\N(CCCS(=O)(=O)[O-])c3ccccc3C2(C)C)cc1.[Na+] [CypH-9] | – | 5.3 | 5125 | 793 | 972 | 789 | 176,300 M^−1cm^−1 | 769# nm | – | >1 | – | –
8 | CCN(C)c1ccc(OC2=C(/C=C/C3=[N+](C)c4ccccc4C3(C)C)CC/C2=C\C=C2\N(C)c3ccccc3C2(C)C)cc1.[Cl-] [CypH-8] | – | 41.4 | 2816 | 801 | 68 | 791 | 72,700 M^−1cm^−1 | 777 nm | >1 | – | – | –
9 | CCCN1/C(=C/C=C2\CCCC(/C=C/C3=[N+](CCC)c4ccccc4C3(C)C)=C2Oc2ccc(N(C)C(C)C)cc2)C(C)(C)c2ccccc21.[I-] [CypH-16] | – | 26.6 | 4847 | 791 | 182 | 783 | 248,000 M^−1cm^−1 | 771 nm | >1 | – | – | –
10 | CCN(C)c1ccc(OC2=C(/C=C/C3=[N+](C)c4ccccc4C3(C)C)CCC/C2=C\C=C2\N(C)c3ccccc3C2(C)C)cc1 [CypH-5] | > 1000 | 22 | 5089 | 786 | 227 | 787 | 134,000 M^−1cm^−1 | 762 nm | – | – | 22.4 | –
11 | CCN(CC)c1ccc(OC2=C(/C=C/C3=[N+](C)c4ccccc4C3(C)C)CCC/C2=C\C=C2\N(C)c3ccccc3C2(C)C)cc1.[Cl-] [CypH-14] | – | 5.9 | 5627 | 786 | 958 | 784 | 215,800 M^−1cm^−1 | 767 nm | >1 | – | – | –
12 | CC1(C)C(/C=C/C=C/C=C/C=C2\N(CCCCS(=O)(=O)O)c3ccc4ccccc4c3C2(C)C)=[N+](CCCCS(=O)(=O)[O-])c2ccc3ccccc3c21 [indocyanine green] | – | – | – | – | – | – | – | – | – | – | – | 1.2
13 | CCN(C)c1ccc(OC2=C(/C=C/C3=[N+](CCCS(=O)(=O)[O-])c4ccccc4C3(C)C)CCC/C2=C\C=C2\N(CCCS(=O)(=O)[O-])c3ccccc3C2(C)C)cc1.[Na+] [CypH-6] | – | 10.8 | 4359 | 789 | 405 | 791 | 150,400 M^−1cm^−1 | 768# nm | – | >1 | – | –
14 | CCN(C)c1ccc(OC2=C(/C=C/C3=[N+](CC)c4ccccc4C3(C)C)CCC/C2=C\C=C2\N(CC)c3ccccc3C2(C)C)cc1 [CypH-7] | > 1000 | 27.8 | 5681 | 788 | 204 | 786 | 179,500 M^−1cm^−1 | 764 nm | – | – | – | –
15 | CN(C)c1ccc(OC2=C(/C=C/C3=[N+](C)c4ccccc4C3(C)C)CC/C2=C\C=C2\N(C)c3ccccc3C2(C)C)cc1.[Cl-] [CypH-4] | – | 23.2 | 1924 | 801 | 83 | 790 | 58,000 M^−1cm^−1 | 775 nm | >1 | – | – | –
16 | CCCN1/C(=C/C=C2\CCCC(/C=C/C3=[N+](CCC)c4ccccc4C3(C)C)=C2Oc2ccc(N(C)CC)cc2)C(C)(C)c2ccccc21.[I-] [CypH-18] | – | 38.2 | 4553 | 792 | 117 | 782 | 257,300 M^−1cm^−1 | 772 nm | >1 | – | – | –
17 | CCN(C)c1ccc(OC2=C(/C=C/C3=[N+](CC(C)C)c4ccccc4C3(C)C)CCC/C2=C\C=C2\N(CC(C)C)c3ccccc3C2(C)C)cc1.[I-] [CypH-20] | – | 35.1 | 3646 | 794 | 104 | 789 | 218,600 M^−1cm^−1 | 774 nm | >1 | – | – | –
18 | CC(C)N(C)c1ccc(OC2=C(/C=C/C3=[N+](C)c4ccccc4C3(C)C)CCC/C2=C\C=C2\N(C)c3ccccc3C2(C)C)cc1 [CypH-12] | > 1000 | 8.7 | 4285 | 787 | 493 | 784 | 255,600 M^−1cm^−1 | 767 nm | – | – | – | –
